Several values for one entry are separate records, joined by “and”; a condition that tells them apart may be missing. Identical values can stand only once. Inconclusive results and toxic doses are left out. Rule as the data show it: active = T/C of 150% or more; inactive = T/C below 125%.
System: L1210 leukemia ip in BDF1 mice, survival T/C
Experiment: NCI In Vivo Anticancer Drug Screen. Data for tumor model L1210 Leukemia (intraperitoneal) in B6D2F1 (BDF1) mice
Details: endpoint: mean survival time, higher = longer survival
Procedure, shortened: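 Antitumor effect is assessed in tumor-bearing animals. Survival in the compound arm is compared with a vehicle-dosed control arm and expressed as their quotient.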

[1] = dose: 100.0 mg/kg/injection, schedule: Q01DX001 (ip), vehicle: saline with Tween-80
[2] = dose: 100.0 mg/kg/injection, schedule: Q01DX009 (ip), vehicle: saline with Tween-80
[3] = dose: 100.0 mg/kg/injection, schedule: Q04DX003 (ip), vehicle: saline with Tween-80
[4] = dose: 200.0 mg/kg/injection, schedule: Q01DX009 (ip), vehicle: saline with Tween-80
[5] = dose: 200.0 mg/kg/injection, schedule: Q04DX003 (ip), vehicle: saline with Tween-80
[6] = dose: 400.0 mg/kg/injection, schedule: Q01DX009 (ip), vehicle: saline with Tween-80
[7] = dose: 400.0 mg/kg/injection, schedule: Q04DX003 (ip), vehicle: saline with Tween-80
[8] = dose: 100.0 mg/kg/injection, schedule: Q01DX009 (ip), vehicle: saline
[9] = dose: 100.0 mg/kg/injection, schedule: Q04DX003 (ip), vehicle: saline
[10] = dose: 200.0 mg/kg/injection, schedule: Q01DX009 (ip), vehicle: saline
[11] = dose: 200.0 mg/kg/injection, schedule: Q04DX003 (ip), vehicle: saline
[12] = dose: 100.0 mg/kg/injection, schedule: Q01DX001 (ip), vehicle: Klucel (hydroxypropylcellulose) (HPC)
[13] = dose: 50.0 mg/kg/injection, schedule: Q04DX003 (ip), vehicle: saline with Tween-80
[14] = dose: 100.0 mg/kg/injection, schedule: Q01DX009 (ip), vehicle: Klucel (hydroxypropylcellulose) (HPC)
[15] = dose: 200.0 mg/kg/injection, schedule: Q01DX009 (ip), vehicle: Klucel (hydroxypropylcellulose) (HPC)
[16] = dose: 400.0 mg/kg/injection, schedule: Q01DX009 (ip), vehicle: Klucel (hydroxypropylcellulose) (HPC)
[17] = dose: 100.0 mg/kg/injection, schedule: Q04DX003 (ip), vehicle: Klucel (hydroxypropylcellulose) (HPC)

Measured: T/C

CN(CCSSCCN(C)C(N)=S)C(N)=S
inactive: dose: 75.0 mg/kg/injection, schedule: Q04DX003 (ip), vehicle: saline 96 % of control | dose: 150.0 mg/kg/injection, schedule: Q04DX003 (ip), vehicle: saline 87 % of control | dose: 300.0 mg/kg/injection, schedule: Q04DX003 (ip), vehicle: saline 96 % of control

O=c1oc(-c2ccccc2)c(-c2ccccc2)c(-c2ccccc2)c1-c1ccccc1
inactive: [1] 103 % of control | dose: 200.0 mg/kg/injection, schedule: Q01DX001 (ip), vehicle: saline with Tween-80 91 % of control | dose: 400.0 mg/kg/injection, schedule: Q01DX001 (ip), vehicle: saline with Tween-80 91 % of control

CC(=O)OCC1OC(COC(C)=O)(c2ccc(C)cc2)C(OC(C)=O)C1OC(C)=O (centres undefined)
inactive: dose: 50.0 mg/kg/injection, schedule: Q01DX001 (ip), vehicle: saline 97 % of control | dose: 100.0 mg/kg/injection, schedule: Q01DX001 (ip), vehicle: saline 103 % of control | dose: 200.0 mg/kg/injection, schedule: Q01DX001 (ip), vehicle: saline 94 % of control | dose: 400.0 mg/kg/injection, schedule: Q01DX001 (ip), vehicle: saline 100 % of control

N#CCC(NC(=O)OCc1ccccc1)C(=O)OCc1ccccc1 (centres undefined)
inactive: [2] 98 % of control | [3] 98 % of control | [4] 96 % of control | [5] 93 % of control | [6] 86 % of control | [7] 89 % of control

CCC(N)Cc1ccc(OC)c(OC)c1 (centres undefined)
inactive: [8] 98 % of control | [9] 93 % of control | [10] 98 % of control | [11] 97 % of control

C1CCC2[N-]CC3CCCCC3[N-]CC3CCCCC3[N-]CC3CCCCC3[N-]CC2C1.[Cu] (centres undefined)
inactive: dose: 20.0 mg/kg/injection, schedule: Q01DX001 (ip), vehicle: Klucel (hydroxypropylcellulose) (HPC) 110 % of control | dose: 40.0 mg/kg/injection, schedule: Q01DX001 (ip), vehicle: Klucel (hydroxypropylcellulose) (HPC) 117 % of control | [12] 116 % of control

S=C(Nc1ccccc1)Sc1ccc(Cl)cc1
inactive: dose: 25.0 mg/kg/injection, schedule: Q04DX003 (ip), vehicle: saline with Tween-80 96 % of control | [13] 92 % of control | [3] 101 % of control

NS(=O)(=O)c1ccc(NC(=O)Nc2ccccc2C(F)(F)F)cc1
inactive: [14] 100 % of control | [15] 89 % of control | [16] 93 % of control

CCN(CC)C(=O)N1CCN(C)CC1
inactive: [14] 101 % of control | [17] 94 % of control | [15] 106 % of control | dose: 200.0 mg/kg/injection, schedule: Q04DX003 (ip), vehicle: Klucel (hydroxypropylcellulose) (HPC) 98 % of control | [16] 104 % of control | dose: 400.0 mg/kg/injection, schedule: Q04DX003 (ip), vehicle: Klucel (hydroxypropylcellulose) (HPC) 96 % of control

CCC(S)C(=O)Nc1ccccc1 (centres undefined)
inactive: [3] 107 % of control | [5] 90 % of control | [7] 91 % of control

BrC=C=C1CCCCC1
inactive: [8] 98 % of control | [10] 93 % of control | dose: 400.0 mg/kg/injection, schedule: Q01DX009 (ip), vehicle: saline 95 % of control

c1cn2cncc2cn1
inactive: dose: 25.0 mg/kg/injection, schedule: Q01DX009 (ip), vehicle: saline 90 % of control | dose: 50.0 mg/kg/injection, schedule: Q01DX009 (ip), vehicle: saline 103 % of control | [8] 88 % of control | [9] 103 % of control | [11] 94 % of control

C/C=C(\CC)C1(CCC)C(=O)NC(=O)N(C)C1=O (centres undefined)
inactive: dose: 75.0 mg/kg/injection, schedule: Q01DX001 (ip), vehicle: other 103 % of control | dose: 75.0 mg/kg/injection, schedule: Q01DX001 (ip), vehicle: saline 95 % of control | dose: 150.0 mg/kg/injection, schedule: Q01DX001 (ip), vehicle: other 103 % of control | dose: 150.0 mg/kg/injection, schedule: Q01DX001 (ip), vehicle: saline 106 % of control | dose: 300.0 mg/kg/injection, schedule: Q01DX001 (ip), vehicle: other 101 % of control | dose: 300.0 mg/kg/injection, schedule: Q01DX001 (ip), vehicle: saline 106 % of control

Nc1nc(N)c2[nH]c(CCNc3ccc(C(=O)O)cc3)nc2n1
inactive: dose: 6.25 mg/kg/injection, schedule: Q01DX001 (ip), vehicle: saline with Tween-80 96 % of control | dose: 12.5 mg/kg/injection, schedule: Q01DX001 (ip), vehicle: saline with Tween-80 92 % of control | dose: 25.0 mg/kg/injection, schedule: Q01DX001 (ip), vehicle: saline with Tween-80 94 % of control and 101 % of control | dose: 50.0 mg/kg/injection, schedule: Q01DX001 (ip), vehicle: saline with Tween-80 98 % of control | [1] 102 % of control

CC1CC(C)(C)N=C(CCC2CCCC2=O)O1 (centres undefined)
inactive: dose: 50.0 mg/kg/injection, schedule: Q01DX009 (ip), vehicle: saline with Tween-80 104 % of control | [13] 95 % of control | [2] 98 % of control | [3] 91 % of control | [4] 100 % of control | [5] 96 % of control | [6] 100 % of control | [7] 91 % of control

CCCCCCCc1cc2ccccc2c2c(N)nc(N)nc12
inactive: dose: 12.0 mg/kg/injection, schedule: Q04DX003 (ip), vehicle: Klucel (hydroxypropylcellulose) (HPC) 105 % of control | dose: 25.0 mg/kg/injection, schedule: Q04DX003 (ip), vehicle: Klucel (hydroxypropylcellulose) (HPC) 93 % of control | dose: 50.0 mg/kg/injection, schedule: Q04DX003 (ip), vehicle: Klucel (hydroxypropylcellulose) (HPC) 98 % of control | [12] 90 % of control | [17] 107 % of control | dose: 200.0 mg/kg/injection, schedule: Q01DX001 (ip), vehicle: Klucel (hydroxypropylcellulose) (HPC) 96 % of control

CS(=O)(=O)ON1C(=O)c2ccccc2C1=O
inactive: dose: 6.25 mg/kg/injection, schedule: Q01DX009 (ip), vehicle: saline with Tween-80 94 % of control | dose: 12.5 mg/kg/injection, schedule: Q01DX009 (ip), vehicle: saline with Tween-80 98 % of control | dose: 25.0 mg/kg/injection, schedule: Q01DX009 (ip), vehicle: saline with Tween-80 94 % of control | dose: 25.0 mg/kg/injection, schedule: Q04DX003 (ip), vehicle: saline 91 % of control | dose: 50.0 mg/kg/injection, schedule: Q04DX003 (ip), vehicle: saline 93 % of control

CCOc1ccc(OCC)c(NC(=O)Nc2ccc(F)c([N+](=O)[O-])c2)c1
inactive: [14] 101 % of control | [15] 93 % of control | [16] 87 % of control
